This is an account of results in US12139520B2 (priority 2020, dated 2024).

Bridge positions count the residues as written; N and C are the ends. Square brackets hold non-standard residues; d marks the D form. Peptide text beside a SMILES is read from it. Hyp = O=C(O)[C@@H]1C[C@@H](O)CN1

Series [1] can be described thus: Physical stability of peptide analogues (Thioflavin T fibrillation). The format is physicochemical. The following applies: maximum ThT signal normalized between hAMY maximum and buffer background; 40° C., shaking, four days; pH 7 per table title. The gist of the method: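 Maximum ThT emission at 480 nm, after LOESS smoothing, is given as percent of the span from buffer background to hAMY. Conditions: 50 mM buffer at pH 4 or 7, 4 μM dye, 40 °C, repeated shaking, readings every 10 min for four days.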

The next series has as its target hAM1 receptor (Homo sapiens, UniProt O60895+Q16602). In words: cAMP assay for in vitro receptor activation, hAM1-R. The format is cell-based. The settings on record: cAMP assay, hAM1 receptor; read-out: hAM1R EC50. The gist of the method: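 Read-out is intracellular cAMP as a measure of receptor activation. Cells stably overexpressing hAM1 were subcloned to a monoclonal line, then thawed and seeded at 8000 cells/well in DPBS with 0.05% casein and the phosphodiesterase inhibitor IBMX at 0.5 mM.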
Background: Changes in cAMP serve as a functional read-out for many G protein-coupled receptors.

Another series deals with T1, hAMY3 receptor (Homo sapiens, UniProt O60896+P30988).
T1 sequence (P30988 25-474): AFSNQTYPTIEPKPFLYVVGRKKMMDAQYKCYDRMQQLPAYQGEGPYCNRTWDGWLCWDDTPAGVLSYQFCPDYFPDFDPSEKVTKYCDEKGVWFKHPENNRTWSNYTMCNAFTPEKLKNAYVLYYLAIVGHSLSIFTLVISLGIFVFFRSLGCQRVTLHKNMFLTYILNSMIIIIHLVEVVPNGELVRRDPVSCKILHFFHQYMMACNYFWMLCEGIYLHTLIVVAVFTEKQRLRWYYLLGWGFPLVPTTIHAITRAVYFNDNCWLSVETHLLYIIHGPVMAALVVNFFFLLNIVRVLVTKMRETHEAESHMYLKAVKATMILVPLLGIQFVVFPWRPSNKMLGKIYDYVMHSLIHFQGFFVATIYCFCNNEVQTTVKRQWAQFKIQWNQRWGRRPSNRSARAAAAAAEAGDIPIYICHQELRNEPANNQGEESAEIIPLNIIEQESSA
T1 sequence (O60896 24-148 partner): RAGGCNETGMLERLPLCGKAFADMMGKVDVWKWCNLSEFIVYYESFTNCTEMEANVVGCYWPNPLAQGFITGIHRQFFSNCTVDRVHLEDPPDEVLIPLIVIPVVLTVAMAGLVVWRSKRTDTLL
In words: cAMP assay for in vitro receptor activation, hAMY3-R. In kind it is cell-based. The settings on record: cAMP assay, hAMY3 receptor; read-out: hAMY3R EC50. The gist of the method:
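Receptor activation was measured as cAMP accumulation in a monoclonal cell line stably overexpressing hAMY3. Stimulation with graded doses lasted 30 min at room temperature in the presence of 0.5 mM IBMX, with human amylin as positive control.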

Chain of hAM1 receptor (Q16602 23-461): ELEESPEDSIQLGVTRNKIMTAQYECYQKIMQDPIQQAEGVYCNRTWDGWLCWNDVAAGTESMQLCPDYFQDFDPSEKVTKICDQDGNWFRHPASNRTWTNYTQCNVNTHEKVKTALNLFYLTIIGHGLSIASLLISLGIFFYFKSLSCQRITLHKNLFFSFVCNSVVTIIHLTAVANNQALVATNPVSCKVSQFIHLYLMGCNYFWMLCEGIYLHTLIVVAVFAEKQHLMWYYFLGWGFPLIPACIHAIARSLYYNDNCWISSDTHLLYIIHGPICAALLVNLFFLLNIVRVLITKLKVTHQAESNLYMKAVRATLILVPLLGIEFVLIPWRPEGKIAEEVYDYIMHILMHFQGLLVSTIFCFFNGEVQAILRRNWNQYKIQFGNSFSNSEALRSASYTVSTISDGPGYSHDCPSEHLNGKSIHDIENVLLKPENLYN
Chain of hAM1 receptor (O60895 43-175 partner): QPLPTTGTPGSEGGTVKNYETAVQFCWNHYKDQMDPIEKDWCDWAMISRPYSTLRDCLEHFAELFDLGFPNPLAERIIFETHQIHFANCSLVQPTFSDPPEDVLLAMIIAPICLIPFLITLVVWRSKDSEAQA

The EC50 is the concentration at which the effect is half-maximal. Take `CC[C@H](C)[C@H](NC(=O)[C@H](CCC(N)=O)NC(=O)[C@H](Cc1c[nH]cn1)NC(=O)[C@H](C)NC(=O)[C@H](CC(C)C)NC(=O)[C@H](CCCNC(=N)N)NC(=O)[C@H](CCC(N)=O)NC(=O)[C@@H](NC(=O)[C@@H](NC(=O)[C@@H]1CSSC[C@H](NC(=O)CN)C(=O)N[C@@H](CCCNC(=N)N)C(=O)N[C@@H](Cc2c[nH]c3ccccc23)C(=O)NCC(=O)N[C@@H]([C@@H](C)O)C(=O)N1)[C@@H](C)O)C(C)C)C(=O)N[C@@H](Cc1ccc(O)cc1)C(=O)N[C@@H](CCC(N)=O)C(=O)N[C@@H](Cc1ccccc1)C(=O)N[C@H](C(=O)N[C@@H](CC(=O)O)C(=O)N[C@@H](CCCCN)C(=O)N[C@@H](Cc1ccccc1)C(=O)N[C@@H](CCCCN)C(=O)N[C@@H](CC(=O)O)C(=O)N[C@@H](CC(N)=O)C(=O)N[C@H](C(=O)N[C@@H](C)C(=O)N1CCC[C@H]1C(=O)N[C@@H](CCCNC(=N)N)C(=O)N[C@@H](CO)C(=O)N[C@@H](CCCCN)C(=O)N[C@H](C(=O)N[C@@H](CO)C(=O)N1CCC[C@H]1C(=O)N[C@@H](CCC(N)=O)C(=O)N[C@H](C(=O)N1C[C@H](O)C[C@H]1C(N)=O)[C@@H](C)O)[C@@H](C)CC)C(C)C)[C@@H](C)O` [compound 171] (H-GCRWGTCTVQRLAHQIYQFTDKFKDNVAPRSKISPQT[Hyp]-NH2; disulfide 2-7; N-terminus assumed): the “Max ThT signal (%)” value in series [1] is listed as 5.000%. Also, the EC50 was greater than 5000 nM at hAM1 receptor and 0.064 nM on hAMY3 receptor.

In the case of `CC[C@H](C)[C@H](NC(=O)[C@H](CCC(N)=O)NC(=O)[C@H](Cc1c[nH]cn1)NC(=O)[C@H](C)NC(=O)[C@H](CC(C)C)NC(=O)[C@H](CCCNC(=N)N)NC(=O)[C@H](CCC(N)=O)NC(=O)[C@@H](NC(=O)[C@@H](NC(=O)[C@@H]1CSSC[C@H](NC(=O)[C@@H](N)CCCCN)C(=O)N[C@@H](CC(N)=O)C(=O)N[C@@H]([C@@H](C)O)C(=O)N[C@@H](C)C(=O)N[C@@H]([C@@H](C)O)C(=O)N1)[C@@H](C)O)C(C)C)C(=O)N[C@@H](Cc1ccc(O)cc1)C(=O)N[C@@H](Cc1ccccc1)C(=O)N[C@H](C(=O)N[C@@H](CC(=O)O)C(=O)N[C@@H](CCCCN)C(=O)N[C@@H](CC(=O)O)C(=O)N[C@@H](CCCCN)C(=O)N[C@@H](CC(=O)O)C(=O)N[C@@H](CC(N)=O)C(=O)N[C@H](C(=O)N[C@@H](C)C(=O)N1CCC[C@H]1C(=O)N1CCC[C@H]1C(=O)N[C@H](C(=O)N[C@@H](CC(N)=O)C(=O)N[C@H](C(=O)NCC(=O)N[C@@H](CO)C(=O)N[C@@H](CC(N)=O)C(=O)NCC(=O)N1C[C@H](O)C[C@H]1C(N)=O)C(C)C)[C@@H](C)O)C(C)C)[C@@H](C)O` [compound 181] (H-KCNTATCTVQRLAHQIYFTDKDKDNVAPPTNVGSNG[Hyp]-NH2; disulfide 2-7; N-terminus assumed), in series [1], the “Max ThT signal (%)” value is reported as 8.800%. The figures for the EC50 at hAM1 receptor and on hAMY3 receptor were greater than 5000 nM and 0.082 nM, respectively.

Turning to `CC[C@H](C)[C@H](NC(=O)[C@H](CCC(N)=O)NC(=O)[C@H](Cc1c[nH]cn1)NC(=O)[C@H](C)NC(=O)[C@H](CC(C)C)NC(=O)[C@H](CCCNC(=N)N)NC(=O)[C@H](CCC(N)=O)NC(=O)[C@@H](NC(=O)[C@@H](NC(=O)[C@@H]1CSSC[C@H](NC(=O)CN)C(=O)N[C@@H](CCCNC(=N)N)C(=O)N[C@@H]([C@@H](C)O)C(=O)NCC(=O)N[C@@H]([C@@H](C)O)C(=O)N1)[C@@H](C)O)C(C)C)C(=O)N[C@@H](Cc1ccc(O)cc1)C(=O)N[C@@H](CCC(N)=O)C(=O)N[C@@H](Cc1ccccc1)C(=O)N[C@H](C(=O)N[C@@H](CC(=O)O)C(=O)N[C@@H](CCCCN)C(=O)N[C@@H](Cc1ccccc1)C(=O)N[C@@H](CCCCN)C(=O)N[C@@H](CC(=O)O)C(=O)N[C@@H](CC(N)=O)C(=O)N[C@H](C(=O)N[C@@H](C)C(=O)N1CCC[C@H]1C(=O)N[C@@H](CCCNC(=N)N)C(=O)N[C@@H](CO)C(=O)N[C@@H](CCCCN)C(=O)N[C@H](C(=O)N[C@@H](CO)C(=O)N1CCC[C@H]1C(=O)N[C@@H](CCC(N)=O)C(=O)N[C@@H](Cc1c[nH]c2ccccc12)C(=O)N1C[C@H](O)C[C@H]1C(N)=O)[C@@H](C)CC)C(C)C)[C@@H](C)O` [compound 185] (H-GCRTGTCTVQRLAHQIYQFTDKFKDNVAPRSKISPQW[Hyp]-NH2; disulfide 2-7; N-terminus assumed), in series [1], the “Max ThT signal (%)” value is reported as 2.800%. Also, the EC50 on hAM1 receptor is greater than 5000 nM; on hAMY3 receptor, 0.09 nM.

For the compound `CC[C@H](C)[C@H](NC(=O)[C@H](CCC(N)=O)NC(=O)[C@H](Cc1c[nH]cn1)NC(=O)[C@H](C)NC(=O)[C@H](CC(C)C)NC(=O)[C@H](CCCNC(=N)N)NC(=O)[C@H](CCC(N)=O)NC(=O)[C@@H](NC(=O)[C@@H](NC(=O)[C@@H]1CSSC[C@H](NC(=O)CN)C(=O)N[C@@H](CCCNC(=N)N)C(=O)N[C@@H]([C@@H](C)O)C(=O)NCC(=O)N[C@@H]([C@@H](C)O)C(=O)N1)[C@@H](C)O)C(C)C)C(=O)N[C@@H](Cc1ccc(O)cc1)C(=O)N[C@@H](CCC(N)=O)C(=O)N[C@@H](Cc1ccccc1)C(=O)N[C@H](C(=O)N[C@@H](CC(=O)O)C(=O)N[C@@H](CCCCN)C(=O)N[C@@H](Cc1ccccc1)C(=O)N[C@@H](CCCCN)C(=O)N[C@@H](CC(=O)O)C(=O)N[C@@H](CC(N)=O)C(=O)N[C@H](C(=O)N[C@@H](C)C(=O)N1CCC[C@H]1C(=O)N[C@@H](CCCNC(=N)N)C(=O)N[C@@H](CO)C(=O)N[C@@H](CCCCN)C(=O)N[C@H](C(=O)N[C@@H](CO)C(=O)N1CCC[C@H]1C(=O)N[C@@H](CCC(N)=O)C(=O)N[C@@H](Cc1ccc(O)cc1)C(=O)N1C[C@H](O)C[C@H]1C(N)=O)[C@@H](C)CC)C(C)C)[C@@H](C)O` [compound 186] (H-GCRTGTCTVQRLAHQIYQFTDKFKDNVAPRSKISPQY[Hyp]-NH2; disulfide 2-7; N-terminus assumed), the “Max ThT signal (%)” value in series [1] was 0.600%. In addition, the EC50 is greater than 5000 nM at hAM1 receptor and 0.091 nM at hAMY3 receptor.

Regarding `CC[C@H](C)[C@H](NC(=O)[C@H](CCC(N)=O)NC(=O)[C@H](Cc1c[nH]cn1)NC(=O)[C@H](C)NC(=O)[C@H](CC(C)C)NC(=O)[C@H](CCCNC(=N)N)NC(=O)[C@H](CCC(N)=O)NC(=O)[C@@H](NC(=O)[C@@H](NC(=O)[C@@H]1CSSC[C@H](NC(=O)CN)C(=O)N[C@@H](CCCNC(=N)N)C(=O)N[C@@H](CCSC)C(=O)NCC(=O)N[C@@H]([C@@H](C)O)C(=O)N1)[C@@H](C)O)C(C)C)C(=O)N[C@@H](Cc1ccc(O)cc1)C(=O)N[C@@H](CCC(N)=O)C(=O)N[C@@H](Cc1ccccc1)C(=O)N[C@H](C(=O)N[C@@H](CC(N)=O)C(=O)N[C@@H](CCCCN)C(=O)N[C@@H](CC(=O)O)C(=O)N[C@@H](CCCCN)C(=O)N[C@@H](CC(=O)O)C(=O)N[C@@H](CC(N)=O)C(=O)N[C@H](C(=O)N[C@@H](C)C(=O)N1CCC[C@H]1C(=O)N[C@@H](CCCNC(=N)N)C(=O)N[C@@H](CO)C(=O)N[C@@H](CCCCN)C(=O)N[C@H](C(=O)N[C@@H](CO)C(=O)N1CCC[C@H]1C(=O)N[C@@H](CCC(N)=O)C(=O)N[C@H](C(=O)N1C[C@H](O)C[C@H]1C(N)=O)[C@@H](C)O)[C@@H](C)CC)C(C)C)[C@@H](C)O` [compound 192] (H-GCRMGTCTVQRLAHQIYQFTNKDKDNVAPRSKISPQT[Hyp]-NH2; disulfide 2-7; N-terminus assumed), in series [1], the “Max ThT signal (%)” value is 4.100%. The EC50 was greater than 5000 nM on hAM1 receptor and 0.098 nM on hAMY3 receptor.

As for `CC[C@H](C)[C@H](NC(=O)[C@H](CCC(N)=O)NC(=O)[C@H](Cc1c[nH]cn1)NC(=O)[C@H](C)NC(=O)[C@H](CC(C)C)NC(=O)[C@H](CCCNC(=N)N)NC(=O)[C@H](CCC(N)=O)NC(=O)[C@@H](NC(=O)[C@@H](NC(=O)[C@@H]1CSSC[C@H](NC(=O)[C@@H](N)CCCCN)C(=O)N[C@@H](CC(N)=O)C(=O)N[C@@H]([C@@H](C)O)C(=O)N[C@@H](C)C(=O)N[C@@H]([C@@H](C)O)C(=O)N1)[C@@H](C)O)C(C)C)C(=O)N[C@@H](Cc1ccc(O)cc1)C(=O)N[C@@H](CCC(N)=O)C(=O)N[C@H](C(=O)N[C@@H](CC(=O)O)C(=O)N[C@@H](CCCCN)C(=O)N[C@@H](CC(=O)O)C(=O)N[C@@H](CCCCN)C(=O)N[C@@H](CC(=O)O)C(=O)N[C@@H](CC(N)=O)C(=O)N[C@H](C(=O)N[C@@H](C)C(=O)N1CCC[C@H]1C(=O)N1CCC[C@H]1C(=O)N[C@H](C(=O)N[C@@H](CC(N)=O)C(=O)N[C@H](C(=O)NCC(=O)N[C@@H](CO)C(=O)N[C@@H](CC(N)=O)C(=O)NCC(=O)N1C[C@H](O)C[C@H]1C(N)=O)C(C)C)[C@@H](C)O)C(C)C)[C@@H](C)O` [compound 195] (H-KCNTATCTVQRLAHQIYQTDKDKDNVAPPTNVGSNG[Hyp]-NH2; disulfide 2-7; N-terminus assumed), the “Max ThT signal (%)” value in series [1] is reported as 6.100%. For the same compound, the values for the EC50 on hAM1 receptor and at hAMY3 receptor were greater than 5000 nM and 0.112 nM, respectively.
